In ChEMBL document CHEMBL5543099 (Eur J Med Chem, 2024):
In brackets after ≈: the same amount, converted by molar mass. Activity calls are given as the source filed them. The rule behind the calls is not given here.

Legend:
[1] = test system: Escherichia coli; test: Antimicrobial activity against Escherichia coli ATCC 25922 assessed as inhibition of bacterial growth incubated for 16 to 18 hrs by CLSI protocol based Muller Hinton broth assay; type: functional; conditions: time 16-18 hrs
[2] = Hemolytic activity in defibrinated sheep RBC incubated for 1 hrs; type: toxicity, cell-based, Ovis aries, Erythrocyte; conditions: defibrinated sheep red blood cells
[3] = test system: Enterococcus faecalis; test: Antimicrobial activity against Enterococcus faecalis ATCC 29212 assessed as inhibition of bacterial growth incubated for 16 to 18 hrs by CLSI protocol based Muller Hinton broth assay; type: functional; conditions: time 16-18 hrs
[4] = test system: Stenotrophomonas maltophilia; test: Antimicrobial activity against Stenotrophomonas maltophilia ATCC 17808 assessed as inhibition of bacterial growth incubated for 16 to 18 hrs by CLSI protocol based Muller Hinton broth assay; type: functional; conditions: time 16-18 hrs
[5] = test system: Staphylococcus aureus; test: Antimicrobial activity against Staphylococcus aureus ATCC 29213 assessed as inhibition of bacterial growth incubated for 16 to 18 hrs by CLSI protocol based Muller Hinton broth assay; type: functional; conditions: time 16-18 hrs
[6] = test system: Cell membrane; test: Induction of cell membrane damage in Escherichia coli assessed as nucleic acid leakage at 4 times of MIC incubated for 2 hrs by n ultra-micro-volume spectrophotometric analysis; type: cell membranes
[7] = test system: Staphylococcus aureus; test: Antibacterial activity against Staphylococcus aureus assessed as inhibition of bacterial growth by measuring fold change in MIC incubated for 6 hrs in presence of 50% fetal bovine serum by CLSI protocol based Muller Hinton broth assay; type: functional
[8] = Cytotoxicity against human SW620 cells assessed as cell survival rate at 64 microg/ml incubated for 48 hrs by CCK8 assay relative to control; type: toxicity, cell-based, SW-620; conditions: at 64 µg/mL, read-out: Activity
[9] = test system: Cell membrane; test: Induction of inner membrane permeabilization in Staphylococcus aureus assessed as fluorescence intensity at 16 microg/ml incubated for 15 mins by PI staining based microplate reader; type: cell membranes; conditions: dose 16.0 µg/ml
[10] = test system: Staphylococcus aureus; test: Antibacterial activity against Staphylococcus aureus assessed as inhibition of bacterial growth by measuring fold change in MIC incubated for 6 hrs in presence of defibrinated sheep 50% plasma by CLSI protocol based Muller Hinton broth assay; type: functional
[11] = test system: Cell membrane; test: Induction of Cytoplasmic membrane depolarization in Staphylococcus aureus at 16 microg/ml incubated for 15 mins by DiSC3(5) dye based fluorescence microplate reader; type: cell membranes; conditions: dose 16.0 µg/ml
[12] = Cytotoxicity against rat HBZY-1 cells assessed as cell survival rate at 64 microg/ml incubated for 48 hrs by CCK8 assay relative to control; type: toxicity, cell-based; conditions: at 64 µg/mL, read-out: Activity
[13] = test system: Staphylococcus aureus; test: Antibacterial activity against Staphylococcus aureus assessed as inhibition of bacterial growth by measuring fold change in MIC incubated for 6 hrs in presence of 50% fetal bovine plasma by CLSI protocol based Muller Hinton broth assay; type: functional
[14] = test system: Staphylococcus aureus; test: Antibacterial activity against Staphylococcus aureus assessed as inhibition of bacterial growth incubated for 6 hrs in presence of 50% fetal bovine plasma by CLSI protocol based Muller Hinton broth assay; type: functional
[15] = test system: Staphylococcus aureus; test: Antibacterial activity against Staphylococcus aureus assessed as inhibition of bacterial growth incubated for 6 hrs in presence of 50% fetal bovine serum by CLSI protocol based Muller Hinton broth assay; type: functional
[16] = test system: Staphylococcus aureus; test: Antibacterial activity against Staphylococcus aureus assessed as inhibition of bacterial growth incubated for 6 hrs in presence of defibrinated sheep 50% plasma by CLSI protocol based Muller Hinton broth assay; type: functional

Row | Molecule | MIC [1] [µg/mL] | HC50 at 1 h [2] [µg/mL] | MIC [3] [µg/mL] | MIC [4] [µg/mL] | MIC [5] [µg/mL] | other results
1 | O=C(O)c1cn(C2CC2)c2cc(N3CCN(C(=O)c4cc[n+](Cc5ccc(C(F)(F)F)cc5)cc4)CC3)c(F)cc2c1=O.[Br-] | 4 | > 1280 | 8 | 4 | 16 | –
2 | CCCCCCCCNC(=O)C[n+]1cccc(C(=O)N2CCN(c3cc4c(cc3F)c(=O)c(C(=O)O)cn4C3CC3)CC2)c1.[Br-] | 8 | > 1280 | 8 | 16 | 8 | –
3 | CCCCCCCNC(=O)C[n+]1ccc(C(=O)N2CCN(c3cc4c(cc3F)c(=O)c(C(=O)O)cn4C3CC3)CC2)cc1.[Br-] | 4 | > 1280 | 2 | 32 | 4 | –
4 | CCCCCCNC(=O)C[n+]1ccc(C(=O)N2CCN(c3cc4c(cc3F)c(=O)c(C(=O)O)cn4C3CC3)CC2)cc1.[Br-] | 8 | > 1280 | 8 | 16 | 8 | –
5 | CCCCNC(=O)C[n+]1cccc(C(=O)N2CCN(c3cc4c(cc3F)c(=O)c(C(=O)O)cn4C3CC3)CC2)c1.[Br-] | 32 | > 1280 | > 64 | > 64 | 64 | –
6 | O=C(O)c1cn(C2CC2)c2cc(N3CCN(C(=O)C[n+]4ccc(-c5ccccc5)cc4)CC3)c(F)cc2c1=O.[Br-] | 16 | > 1280 | 8 | 16 | 16 | –
7 | O=C(O)c1cn(C2CC2)c2cc(N3CCN(C(=O)c4cc[n+](Cc5ccc(F)cc5)cc4)CC3)c(F)cc2c1=O.[Br-] | 4 | > 1280 | 8 | 4 | 16 | –
8 | O=C(O)c1cn(C2CC2)c2cc(N3CCN(C(=O)c4cc[n+](Cc5ccc(-c6ccccc6)cc5)cc4)CC3)c(F)cc2c1=O.[Br-] | 4 | > 1280 | 32 | 4 | 4 | –
9 | O=C(O)c1cn(C2CC2)c2cc(N3CCN(C(=O)c4cc[n+](Cc5ccccc5)cc4)CC3)c(F)cc2c1=O.[Br-] | 8 | > 1280 | 8 | 4 | 16 | –
10 | CCCCCCCCCNC(=O)C[n+]1cccc(C(=O)N2CCN(c3cc4c(cc3F)c(=O)c(C(=O)O)cn4C3CC3)CC2)c1.[Br-] | 8 | > 1280 | 8 | 32 | 8 | –
11 | CCCCCCCCCNC(=O)C[n+]1ccc(C(=O)N2CCN(c3cc4c(cc3F)c(=O)c(C(=O)O)cn4C3CC3)CC2)cc1.[Br-] | 4 | > 1280 | 2 | 16 | 4 | –
12 | CCCCCNC(=O)C[n+]1cccc(C(=O)N2CCN(c3cc4c(cc3F)c(=O)c(C(=O)O)cn4C3CC3)CC2)c1.[Br-] | 32 | > 1280 | 64 | > 64 | 32 | –
13 | CC[C@H](C)[C@H](NC(=O)CN)C(=O)NCC(=O)N[C@@H](C)C(=O)N[C@H](C(=O)N[C@@H](CC(C)C)C(=O)N[C@@H](CCCCN)C(=O)N[C@H](C(=O)N[C@@H](CC(C)C)C(=O)N[C@H](C(=O)N[C@H](C(=O)NCC(=O)N[C@@H](CC(C)C)C(=O)N1CCC[C@H]1C(=O)N[C@@H](C)C(=O)N[C@@H](CC(C)C)C(=O)N[C@H](C(=O)N[C@@H](CO)C(=O)N[C@@H](Cc1c[nH]c2ccccc12)C(=O)N[C@H](C(=O)N[C@@H](CCCCN)C(=O)N[C@@H](CCCNC(=N)N)C(=O)N[C@@H](CCCCN)C(=O)N[C@@H](CCCNC(=N)N)C(=O)N[C@@H](CCC(N)=O)C(=O)N[C@@H](CCC(N)=O)C(N)=O)[C@@H](C)CC)[C@@H](C)CC)[C@@H](C)O)[C@@H](C)O)C(C)C)C(C)C [MELITTIN] | – | – | 2 (≈ 0.703 µM) | 8 (≈ 2.81 µM) | – | Activity [6]: Active; fold change (FC) [7]: 32; viability at 48 h, 64 microg/ml [8]: 5.7%; Flu intensity [9]: 600; fold change (FC) [10]: 32; Activity [11]: Active; viability at 48 h, 64 microg/ml [12]: 1.4%; fold change (FC) [13]: 32
14 | CCCCCNC(=O)C[n+]1ccc(C(=O)N2CCN(c3cc4c(cc3F)c(=O)c(C(=O)O)cn4C3CC3)CC2)cc1.[Br-] | 16 | > 1280 | 8 | 64 | 16 | –
15 | CCCCNC(=O)C[n+]1ccc(C(=O)N2CCN(c3cc4c(cc3F)c(=O)c(C(=O)O)cn4C3CC3)CC2)cc1.[Br-] | 16 | > 1280 | 16 | 64 | 16 | –
16 | C=C[C@]1(C)C[C@@H](OC(=O)CSCCN(CC)CC)[C@]2(C)[C@H](C)CC[C@]3(CCC(=O)[C@H]32)[C@@H](C)[C@@H]1O [TIAMULIN] | – | – | – | – | – | viability at 48 h, 64 microg/ml [8]: 32.9%; viability at 48 h, 64 microg/ml [12]: 85.9%
17 | CCCNC(=O)C[n+]1ccc(C(=O)N2CCN(c3cc4c(cc3F)c(=O)c(C(=O)O)cn4C3CC3)CC2)cc1.[Br-] | 16 | > 1280 | 16 | > 64 | 16 | –
18 | CCCNC(=O)C[n+]1cccc(C(=O)N2CCN(c3cc4c(cc3F)c(=O)c(C(=O)O)cn4C3CC3)CC2)c1.[Br-] | 16 | > 1280 | 64 | > 64 | 64 | –
19 | CC(C)(C)c1ccc(C[n+]2ccc(C(=O)N3CCN(c4cc5c(cc4F)c(=O)c(C(=O)O)cn5C4CC4)CC3)cc2)cc1.[Br-] | 4 | > 1280 | 4 | 4 | 8 | –
20 | C=C[C@]1(C)C[C@@H](OC(=O)CS[C@@H]2C[C@H]3CC[C@@H](C2)N3C)[C@]2(C)[C@H](C)CC[C@]3(CCC(=O)[C@H]32)[C@@H](C)[C@@H]1O [RETAPAMULIN] | – | – | – | – | – | viability at 48 h, 64 microg/ml [8]: 4.7%; viability at 48 h, 64 microg/ml [12]: 1.7%
21 | CCCCCCNC(=O)C[n+]1cccc(C(=O)N2CCN(c3cc4c(cc3F)c(=O)c(C(=O)O)cn4C3CC3)CC2)c1.[Br-] | 16 | > 1280 | 32 | 64 | 16 | –
22 | CCCCCCCNC(=O)C[n+]1cccc(C(=O)N2CCN(c3cc4c(cc3F)c(=O)c(C(=O)O)cn4C3CC3)CC2)c1.[Br-] | 8 | > 1280 | 8 | 64 | 8 | –
23 | O=C(O)c1cn(C2CC2)c2cc(N3CCN(C(=O)c4cc[n+](Cc5ccc(Cl)cc5)cc4)CC3)c(F)cc2c1=O.[Br-] | 8 | > 1280 | 8 | 8 | 16 | –
24 | COLISTIN | – | – | – | – | – | MIC [14]: 16 µg/mL; fold change (FC) [7]: 4; MIC [15]: 8 µg/mL; fold change (FC) [10]: 4; MIC [16]: 16 µg/mL; fold change (FC) [13]: 2
25 | GENTAMICIN | – | – | – | – | – | Activity [11]: inactive
26 | C[C@@H](O)[C@H]1C(=O)N2C(C(=O)O)=C(S[C@@H]3CN[C@H](C(=O)N(C)C)C3)[C@H](C)[C@H]12 [MEROPENEM] | 0.03 (≈ 0.0782 µM) | – | – | 0.06 (≈ 0.156 µM) | – | –
